The values that follow come from BindingDB's records for patent US11981680 (Bristol Myers Squibb, 2024).

This assay has as its target Protein-arginine deiminase type-4 (Homo sapiens, UniProt Q9UM07). Nature of the assay: RFMS Human PAD4 Functional Assay. The method, then: Compounds were solubilized in 100% DMSO to achieve a10 mM compound concentration. Compound stock solutions were stored at RT. A series of dilutions were prepared in DMSO and mixed 8 times with 20 μL mixing volume. Final top concentration of compound in the assay is 50 μM. Final assay conditions were as follows:Reaction volume: 26 μlAssay buffer: 25 mM hepes, pH 7.5, 5 mM NaCl, 1 mM DTT, 0.2 mg/ml BSA, 0.01% CHAPS, 50 μM Calcium, and 5 μM TPENFinal concentrations: 5 nM hPAD4 enzyme, 250 μM BAEE, and 0.5% DMSOTotal incubation time: 30 mins compound and enzyme preincubation at 37° C., 90 min enzyme/substrate reaction, 30 min reaction with phenyl glyoxal at 37° C.Stop solution: 40 μl 5% TCA in ACN0.13 μL of compound solution was added to 13 μL of 10 nM PAD4 in assay buffer. After 30 min 13 μl of 500 μM of BAEE was added in 25 mM hepes, pH 7.5, 5 mM NaCl, 1 mM DTT, 0.2 mg/ml BSA, 0.01% CHAPS, 50 μM Calcium, 5 μM TPEN was added and the reaction incubated for 90 min at 37° C. The enzymatic reaction was quenched by addition of 15 μl of 6.1N TCA, 100% Final Concentration is 20%, 35 μl of 8.5 mM phenyl glyoxal (final concentration 4 mM) is then added and the reaction is incubated for 30 min at 37° C.After 30 minutes the plates are spun down to remove all precipitate. The enzyme reaction was quenched with an equal volume of methanol containing internal standard (modified citrulline). […]

Protein-arginine deiminase type-4, sequence (Q9UM07 whole entry): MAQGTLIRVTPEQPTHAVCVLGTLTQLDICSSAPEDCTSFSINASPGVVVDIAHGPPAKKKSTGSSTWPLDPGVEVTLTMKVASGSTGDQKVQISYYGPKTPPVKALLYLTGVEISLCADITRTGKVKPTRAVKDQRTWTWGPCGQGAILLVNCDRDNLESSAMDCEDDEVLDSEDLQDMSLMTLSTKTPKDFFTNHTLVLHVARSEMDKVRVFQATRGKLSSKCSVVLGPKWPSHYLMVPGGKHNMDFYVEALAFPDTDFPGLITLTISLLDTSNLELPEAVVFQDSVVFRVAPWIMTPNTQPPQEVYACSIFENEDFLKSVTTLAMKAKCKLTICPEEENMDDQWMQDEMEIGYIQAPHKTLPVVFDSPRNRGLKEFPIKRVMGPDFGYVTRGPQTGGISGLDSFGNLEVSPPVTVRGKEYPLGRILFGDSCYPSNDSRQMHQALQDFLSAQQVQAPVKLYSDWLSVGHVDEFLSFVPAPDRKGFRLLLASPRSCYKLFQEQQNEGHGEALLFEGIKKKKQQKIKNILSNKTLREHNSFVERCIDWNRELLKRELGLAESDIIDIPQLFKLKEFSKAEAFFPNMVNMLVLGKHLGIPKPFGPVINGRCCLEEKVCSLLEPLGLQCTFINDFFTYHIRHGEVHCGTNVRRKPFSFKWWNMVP

In general, IC50 refers to the concentration that inhibits the measured activity by half. Turning to `COc1cc(C(=O)N2C[C@H]3CC[C@@H]2[C@@H]3N)cc2nc(-c3cc4scc(-c5cn[nH]c5)c4n3CC3CC3)n(C)c12` [US11981680, Example 39], it took 35 nM to reach half-maximal inhibition (IC50).
